The results in this text go back to ChEMBL document CHEMBL3580588, “Inhibitors of the PAR-2 Signaling Pathway May Treat Pain and Inflammation” (ACS Med Chem Lett, 2015).

The assay addresses Proteinase-activated receptor 1 (Homo sapiens) (UniProt P25116). Description: Antagonist activity against PAR1 in human HT29 cells assessed as inhibition of thrombin-induced Ca2+ responses pre-incubated for 30 mins before thrombin stimulation by FLIPR assay.

Structures are written as SMILES.

Sequence of Proteinase-activated receptor 1 (Homo sapiens) (P25116 whole entry, looked up): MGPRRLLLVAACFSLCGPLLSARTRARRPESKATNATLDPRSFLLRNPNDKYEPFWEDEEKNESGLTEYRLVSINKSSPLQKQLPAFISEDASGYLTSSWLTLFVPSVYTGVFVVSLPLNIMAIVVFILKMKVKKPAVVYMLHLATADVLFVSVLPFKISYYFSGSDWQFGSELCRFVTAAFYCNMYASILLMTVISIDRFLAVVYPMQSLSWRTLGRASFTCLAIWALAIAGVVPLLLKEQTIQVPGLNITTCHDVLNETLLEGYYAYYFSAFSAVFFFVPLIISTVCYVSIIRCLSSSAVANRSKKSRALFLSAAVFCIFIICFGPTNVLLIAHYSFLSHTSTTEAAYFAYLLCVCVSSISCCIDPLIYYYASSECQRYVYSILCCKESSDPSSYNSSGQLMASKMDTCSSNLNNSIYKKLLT

For `CCOC(=O)[C@H]1CCCN(C(=O)c2cn3nc(-c4ccc(F)cc4)cc(C(F)(F)F)c3n2)[C@@H]1C`, the half-maximal inhibitory concentration (IC50) stood at 5.5 µM.
With `CC(C)c1cc(-c2ccc(F)cc2)nn2cc(C(=O)N3CCN(C(=O)Cc4ccsc4)[C@@H](C)C3)nc12`, the IC50 was more than 0.5 µM.
The same measure for `CC(C)(C)OC(=O)N1CCN(C(=O)c2cn3nc(-c4ccc(F)cc4)cc(C(C)(C)C)c3n2)C(C)(C)C1`: more than 50 µM.
